Experimental data published in ChEMBL document CHEMBL4602617, “Discovery and optimization of heteroaryl piperazines as potent and selective PI3Kδ inhibitors” (Bioorg Med Chem Lett, 2020).

Tests used:
CDK2/Cyclin A2 = CDK2/Cyclin A2 (Homo sapiens, UniProt P24941); test: Inhibition of recombinant full length human His-tagged CDK2/Cyclin A expressed in baculovirus expression system using serine/threonine-12 peptide as substrate incubated for 60 mins in presence of ATP by Z'-LYTE assay
[1] = target: Cyclin-dependent kinase 1/cyclin B1 (Homo sapiens, UniProt P06493); test: Inhibition of recombinant full length human His-tagged CDK1/CyclinB expressed in baculovirus expression system using serine/threonine-18 peptide as substrate incubated for 60 mins in presence of ATP by Z'-LYTE assay
[2] = target: Tyrosine-protein kinase ABL1 (Homo sapiens, UniProt P00519, Y253F); test: Inhibition of recombinant full length human His-tagged ABL1 Y253F mutant cytoplasmic domain expressed in baculovirus expression system using tyrosine-2 peptide as substrate incubated for 60 mins in presence of ATP by Z'-LYTE assay
Misshapen-like kinase 1 = Misshapen-like kinase 1 (Homo sapiens, UniProt Q8N4C8); test: Inhibition of recombinant human MINK1 catalytic domain expressed in baculovirus expression system using Ser/Thr 07 peptide as substrate after 1 hr in presence of ATP by Z'LYTE assay
[3] = target: Tyrosine-protein kinase Fgr (Homo sapiens, UniProt P09769); test: Inhibition of recombinant full length human C-terminal His-tagged FGR expressed in baculovirus expression system using tyrosine-2 peptide as substrate incubated for 60 mins in presence of ATP by Z'-LYTE assay
[4] = target: Sodium-dependent serotonin transporter (Homo sapiens) (UniProt P31645); test: Displacement of [3H]paroxetine from full length recombinant human […] expressed in HEK293 cells at 10 uM after 60 mins by radiometric scintillation analysis relative to control; format: cell-based
Mesocricetus auratus = organism: Mesocricetus auratus; test: Displacement of [3H]glyburide from KATP receptor in HIT-T15 Syrian hamster pancreatic B cell membranes at 10 uM after 120 mins by radiometric scintillation analysis relative to control
[5] = target: Mu-type opioid receptor (Homo sapiens) (UniProt P35372); test: Displacement of [3H]diprenorphine from full length human recombinant Mu opioid receptor expressed in CHO-K1 cells at 10 uM measured after 60 mins by radiometric scintillation analysis relative to control; format: cell-based
[6] = target: Muscarinic acetylcholine receptor M5 (Homo sapiens) (UniProt P08912); test: Displacement of [3H]N-Methylscopolamine from full length human recombinant Muscarinic M5 receptor expressed in CHOK1 cells at 10 uM measured after 120 mins by radiometric scintillation analysis relative to control; format: cell-based; conditions: CHO-K1
[7] = target: Histamine H2 receptor (Homo sapiens) (UniProt P25021); test: Displacement of [125I]aminopotentidine from full length human recombinant histamine H2 receptor expressed in CHO-K1 cells at 10 uM measured after 120 mins by radiometric scintillation analysis relative to control; format: cell-based
[8] = target: Endothelin-1 receptor (Homo sapiens) (UniProt P25101); test: Displacement of [125I]endothelin-1 from recombinant full length human recombinant ETA receptor expressed in CHO-S cells at 10 uM measured after 120 mins by radiometric scintillation analysis relative to control; format: cell-based
[9] = target: D(2) dopamine receptor (Homo sapiens) (UniProt P14416); test: Displacement of [3H]spiperone from recombinant full length human recombinant D2S receptor expressed in CHO cells at 10 uM measured after 120 mins by radiometric scintillation analysis relative to control; format: cell-based
[10] = target: Cannabinoid receptor 2 (Homo sapiens) (UniProt P34972); test: Displacement of [3H]WIN55212-2 from recombinant full length human recombinant CB2 receptor expressed in CHOK1 cells at 10 uM measured after 90 mins by radiometric scintillation analysis relative to control; format: cell-based; conditions: CHO-K1
[11] = target: Calcitonin gene-related peptide type 1 receptor (Homo sapiens) (UniProt Q16602); test: Inhibition of human AM1 receptor at 10 uM relative to control
[12] = target: Alpha-1D adrenergic receptor (Homo sapiens) (UniProt P25100); test: Displacement of [3H]prazosin from recombinant full length human alpha1d adrenergic receptor expressed in HEK293 cell membranes at 10 uM measured after 60 mins by scintillation counting method relative to control
[13] = target: Alpha-1A adrenergic receptor (Rattus norvegicus) (UniProt P43140); test: Displacement of [3H]prazosin from alpha1a adrenergic receptor in Wistar rat submaxillary gland membranes at 10 uM measured after 60 mins by scintillation counting method relative to control; format: cell membranes; conditions: Membrane
Caspase-3 (Homo sapiens) = Caspase-3 (Homo sapiens) (UniProt P42574); test: Inhibition of recombinant full-length human caspase 3 expressed in Escherichia coli at 10 uM using Ac-DEVD-AMC as substrate after 60 mins by spectrophotometric analysis relative to control
[14] = target: Death-associated protein kinase 1 (Homo sapiens, UniProt P53355); test: Inhibition of recombinant human GST-tagged DAPK1 catalytic domain (1 to 363 residues) expressed in baculovirus expression system using ZIPtide peptide as substrate incubated for 60 mins in presence of ATP by Adapta assay
Ephrin type-A receptor 8 = Ephrin type-A receptor 8 (Homo sapiens, UniProt P29322); test: Inhibition of recombinant human GST-tagged EPHA8 catalytic domain (565 to 1005 residues) expressed in baculovirus expression system using tyrosine-2 peptide as substrate incubated for 60 mins in presence of ATP by Z'-LYTE assay
[15] = target: Receptor tyrosine-protein kinase erbB-4 (Homo sapiens, UniProt Q15303); test: Inhibition of recombinant human N-terminal GST-tagged ERBB4 catalytic domain (708 to 993 residues) expressed in baculovirus expression system using tyrosine-1 peptide as substrate incubated for 60 mins in presence of ATP by Z'-LYTE assay
[16] = target: Fibroblast growth factor receptor 1 (Homo sapiens, UniProt P11362); test: Inhibition of recombinant His-tagged human FGFR1 cytoplasmic domain expressed in baculovirus expression system using Tyr 04 peptide as substrate after 1 hr in presence of ATP by Z'-LYTE assay
[17] = target: Tyrosine-protein kinase Lck (Homo sapiens, UniProt P06239); test: Inhibition of recombinant full length human His-tagged LCK expressed in baculovirus expression system using tyrosine-2 peptide as substrate incubated for 60 mins in presence of ATP by Z'-LYTE assay
[18] = target: Dual specificity mitogen-activated protein kinase kinase 1 (Homo sapiens, UniProt Q02750); test: Inhibition of recombinant full length human His-tagged MEK1 expressed in baculovirus expression system using serine/threonine-3 peptide as substrate incubated for 60 mins in presence of ATP by Z'-LYTE assay
[19] = target: Phosphatidylinositol 4-kinase beta (Homo sapiens, UniProt Q9UBF8); test: Inhibition of recombinant full length human GST-tagged PI4KB expressed in baculovirus expression system using PI lipid as substrate incubated for 60 mins in presence of ATP by Adapta assay
[20] = target: Tyrosine-protein kinase Srms (Homo sapiens, UniProt Q9H3Y6); test: Inhibition of recombinant full length human GST-tagged SRM expressed in baculovirus expression system using tyrosine-1 peptide as substrate incubated for 60 mins in presence of ATP by Z'-LYTE assay
[21] = target: Serine/threonine-protein kinase 24 (Homo sapiens, UniProt Q9Y6E0); test: Inhibition of recombinant full length human GST-tagged MST3 expressed in baculovirus expression system using serine/threonine-7 peptide as substrate incubated for 60 mins in presence of ATP by Z'-LYTE assay
Sequence of Serine/threonine-protein kinase 24 (Q9Y6E0 whole entry): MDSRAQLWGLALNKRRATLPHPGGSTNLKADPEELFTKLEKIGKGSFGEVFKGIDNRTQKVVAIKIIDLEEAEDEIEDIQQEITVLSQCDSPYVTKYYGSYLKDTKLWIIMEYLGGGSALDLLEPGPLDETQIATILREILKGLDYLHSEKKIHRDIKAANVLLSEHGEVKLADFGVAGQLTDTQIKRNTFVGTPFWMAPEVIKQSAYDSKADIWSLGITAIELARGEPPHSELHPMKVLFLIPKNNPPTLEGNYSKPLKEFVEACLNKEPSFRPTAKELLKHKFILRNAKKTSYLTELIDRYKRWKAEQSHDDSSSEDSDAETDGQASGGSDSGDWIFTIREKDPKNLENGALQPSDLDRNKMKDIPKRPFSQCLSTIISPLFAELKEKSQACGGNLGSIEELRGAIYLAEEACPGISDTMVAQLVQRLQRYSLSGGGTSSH

Sequence of Death-associated protein kinase 1 (P53355 whole entry, the tested form may be a part): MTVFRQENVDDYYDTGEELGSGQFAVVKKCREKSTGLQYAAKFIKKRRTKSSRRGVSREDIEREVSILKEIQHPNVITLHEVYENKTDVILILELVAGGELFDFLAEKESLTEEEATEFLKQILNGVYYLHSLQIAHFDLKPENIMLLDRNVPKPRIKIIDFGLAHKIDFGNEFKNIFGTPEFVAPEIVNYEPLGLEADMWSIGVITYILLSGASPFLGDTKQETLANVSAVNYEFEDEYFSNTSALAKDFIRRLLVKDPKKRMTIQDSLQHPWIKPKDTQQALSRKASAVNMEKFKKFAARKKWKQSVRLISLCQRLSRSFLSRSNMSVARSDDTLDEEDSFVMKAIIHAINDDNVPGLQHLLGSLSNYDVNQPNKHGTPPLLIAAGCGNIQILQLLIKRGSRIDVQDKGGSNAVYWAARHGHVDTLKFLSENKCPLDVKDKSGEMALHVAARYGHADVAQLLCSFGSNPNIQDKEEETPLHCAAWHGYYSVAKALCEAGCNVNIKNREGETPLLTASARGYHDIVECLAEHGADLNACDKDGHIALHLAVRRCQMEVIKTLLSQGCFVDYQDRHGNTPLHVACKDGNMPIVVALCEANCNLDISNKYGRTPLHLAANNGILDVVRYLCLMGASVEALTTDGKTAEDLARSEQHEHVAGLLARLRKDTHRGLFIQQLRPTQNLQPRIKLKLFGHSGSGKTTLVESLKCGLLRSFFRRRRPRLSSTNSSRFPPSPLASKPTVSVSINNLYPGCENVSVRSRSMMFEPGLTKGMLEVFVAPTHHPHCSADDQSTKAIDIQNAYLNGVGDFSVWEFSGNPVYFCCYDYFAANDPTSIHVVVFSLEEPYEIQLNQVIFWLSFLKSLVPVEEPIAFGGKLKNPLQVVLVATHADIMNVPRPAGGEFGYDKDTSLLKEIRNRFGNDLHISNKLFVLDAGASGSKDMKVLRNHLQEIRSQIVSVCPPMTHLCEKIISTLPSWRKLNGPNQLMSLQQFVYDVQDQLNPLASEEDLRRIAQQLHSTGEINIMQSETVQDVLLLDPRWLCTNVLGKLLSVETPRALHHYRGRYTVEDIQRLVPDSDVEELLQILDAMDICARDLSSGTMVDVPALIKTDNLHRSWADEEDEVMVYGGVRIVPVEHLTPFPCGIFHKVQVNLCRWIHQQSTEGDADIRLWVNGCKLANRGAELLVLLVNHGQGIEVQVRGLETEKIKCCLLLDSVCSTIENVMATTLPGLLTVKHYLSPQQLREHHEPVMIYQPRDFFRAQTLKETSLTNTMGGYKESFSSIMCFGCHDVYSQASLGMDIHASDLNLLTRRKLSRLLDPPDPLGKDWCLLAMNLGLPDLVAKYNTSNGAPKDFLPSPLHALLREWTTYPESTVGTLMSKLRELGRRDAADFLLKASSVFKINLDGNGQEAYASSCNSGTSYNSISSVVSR
Sequence of D(2) dopamine receptor (Homo sapiens) (P14416 whole entry): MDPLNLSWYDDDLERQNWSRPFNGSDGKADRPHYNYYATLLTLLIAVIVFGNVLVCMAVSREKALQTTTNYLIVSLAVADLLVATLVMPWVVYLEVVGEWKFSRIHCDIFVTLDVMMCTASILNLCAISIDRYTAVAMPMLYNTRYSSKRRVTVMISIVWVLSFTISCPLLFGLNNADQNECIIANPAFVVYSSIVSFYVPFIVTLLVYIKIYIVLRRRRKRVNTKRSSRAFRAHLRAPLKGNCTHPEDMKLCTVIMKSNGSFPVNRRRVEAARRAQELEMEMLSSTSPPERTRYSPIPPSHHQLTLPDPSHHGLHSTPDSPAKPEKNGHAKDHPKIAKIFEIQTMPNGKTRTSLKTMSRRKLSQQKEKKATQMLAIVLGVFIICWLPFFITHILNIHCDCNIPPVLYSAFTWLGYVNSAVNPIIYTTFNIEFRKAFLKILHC
Sequence of Receptor tyrosine-protein kinase erbB-4 (Q15303 whole entry, the tested form may be a part): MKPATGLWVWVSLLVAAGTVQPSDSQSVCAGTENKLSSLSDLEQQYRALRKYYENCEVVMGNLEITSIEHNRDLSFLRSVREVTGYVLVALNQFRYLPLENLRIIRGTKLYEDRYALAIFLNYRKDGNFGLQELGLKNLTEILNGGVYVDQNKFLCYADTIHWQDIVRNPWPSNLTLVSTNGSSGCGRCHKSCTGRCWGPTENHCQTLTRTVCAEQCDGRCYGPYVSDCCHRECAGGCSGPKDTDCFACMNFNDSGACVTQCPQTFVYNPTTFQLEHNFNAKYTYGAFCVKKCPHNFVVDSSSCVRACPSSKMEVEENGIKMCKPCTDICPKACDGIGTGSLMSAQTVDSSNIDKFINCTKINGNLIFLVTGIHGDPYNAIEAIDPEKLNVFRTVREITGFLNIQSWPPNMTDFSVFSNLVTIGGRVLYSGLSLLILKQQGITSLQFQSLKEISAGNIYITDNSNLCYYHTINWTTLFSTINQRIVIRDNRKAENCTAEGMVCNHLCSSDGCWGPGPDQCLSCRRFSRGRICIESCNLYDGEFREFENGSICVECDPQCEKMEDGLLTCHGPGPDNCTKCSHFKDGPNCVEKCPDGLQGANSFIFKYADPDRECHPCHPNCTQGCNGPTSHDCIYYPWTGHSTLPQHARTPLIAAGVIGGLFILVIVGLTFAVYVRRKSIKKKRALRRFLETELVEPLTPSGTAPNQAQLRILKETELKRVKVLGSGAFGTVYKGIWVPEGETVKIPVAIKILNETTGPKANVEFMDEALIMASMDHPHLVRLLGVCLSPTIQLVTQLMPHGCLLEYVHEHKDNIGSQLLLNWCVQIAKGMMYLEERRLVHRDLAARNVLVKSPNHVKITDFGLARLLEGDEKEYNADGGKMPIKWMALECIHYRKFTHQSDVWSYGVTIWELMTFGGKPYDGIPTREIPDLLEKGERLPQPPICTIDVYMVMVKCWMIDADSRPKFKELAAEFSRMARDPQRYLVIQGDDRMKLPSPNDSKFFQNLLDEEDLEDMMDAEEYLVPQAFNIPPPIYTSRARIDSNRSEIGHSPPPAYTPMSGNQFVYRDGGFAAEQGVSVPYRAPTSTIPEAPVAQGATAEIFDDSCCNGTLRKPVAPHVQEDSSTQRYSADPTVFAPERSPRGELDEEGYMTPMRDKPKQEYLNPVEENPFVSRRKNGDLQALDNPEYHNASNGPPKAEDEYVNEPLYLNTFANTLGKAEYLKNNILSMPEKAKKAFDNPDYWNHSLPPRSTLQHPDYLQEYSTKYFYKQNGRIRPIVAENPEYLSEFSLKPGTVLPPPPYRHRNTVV
Sequence of Misshapen-like kinase 1 (Q8N4C8 whole entry, the tested form may be a part): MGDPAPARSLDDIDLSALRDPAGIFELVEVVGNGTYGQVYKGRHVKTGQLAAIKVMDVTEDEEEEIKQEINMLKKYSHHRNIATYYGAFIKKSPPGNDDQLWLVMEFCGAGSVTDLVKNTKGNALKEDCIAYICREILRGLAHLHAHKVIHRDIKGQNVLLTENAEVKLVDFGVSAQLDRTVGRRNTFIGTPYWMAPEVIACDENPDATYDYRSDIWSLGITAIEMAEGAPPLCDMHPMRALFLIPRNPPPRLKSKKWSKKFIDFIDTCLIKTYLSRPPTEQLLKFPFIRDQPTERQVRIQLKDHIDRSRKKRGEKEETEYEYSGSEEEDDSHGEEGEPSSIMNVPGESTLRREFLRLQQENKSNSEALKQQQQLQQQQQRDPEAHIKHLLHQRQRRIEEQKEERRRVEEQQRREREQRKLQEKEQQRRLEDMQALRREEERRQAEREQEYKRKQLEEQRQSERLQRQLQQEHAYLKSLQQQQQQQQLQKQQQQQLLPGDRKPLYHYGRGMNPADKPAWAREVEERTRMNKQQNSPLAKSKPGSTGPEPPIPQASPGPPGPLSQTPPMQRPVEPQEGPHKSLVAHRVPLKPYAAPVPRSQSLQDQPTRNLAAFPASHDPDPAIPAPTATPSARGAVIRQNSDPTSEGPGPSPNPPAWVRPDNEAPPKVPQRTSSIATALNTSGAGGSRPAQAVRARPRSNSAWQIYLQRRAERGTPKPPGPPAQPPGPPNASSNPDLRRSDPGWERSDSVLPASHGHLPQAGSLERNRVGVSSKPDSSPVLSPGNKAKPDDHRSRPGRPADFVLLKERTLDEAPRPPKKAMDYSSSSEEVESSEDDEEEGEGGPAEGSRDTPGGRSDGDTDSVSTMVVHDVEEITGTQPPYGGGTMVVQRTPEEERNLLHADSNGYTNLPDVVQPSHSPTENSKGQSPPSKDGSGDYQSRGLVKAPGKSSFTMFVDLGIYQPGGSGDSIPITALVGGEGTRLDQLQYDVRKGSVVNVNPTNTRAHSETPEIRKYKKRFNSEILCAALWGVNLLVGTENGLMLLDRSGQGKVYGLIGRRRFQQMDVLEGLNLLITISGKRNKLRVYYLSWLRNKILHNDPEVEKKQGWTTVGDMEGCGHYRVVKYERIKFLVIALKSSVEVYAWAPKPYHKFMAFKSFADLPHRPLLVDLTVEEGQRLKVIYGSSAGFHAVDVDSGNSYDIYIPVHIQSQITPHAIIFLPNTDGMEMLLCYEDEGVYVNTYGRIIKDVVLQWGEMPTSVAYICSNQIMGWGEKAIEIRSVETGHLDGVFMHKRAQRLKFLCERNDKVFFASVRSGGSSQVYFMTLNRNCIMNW

`C[C@@H]1C[C@H]1C(=O)N1CCN(c2cnc(C#N)c(-c3cnn(C)c3)n2)C[C@H]1C` showed an IC50 (CDK2/Cyclin A2) of over 100 µM, an IC50 [1] of over 100 µM and an IC50 [2] of over 100 µM. The IC50 (Misshapen-like kinase 1) was 25.6 µM, the IC50 [3] was 25.4 µM and the inhibition [4] was 0%. It also gave an inhibition (Mesocricetus auratus) of -1%, an inhibition [5] of 5% and an inhibition [6] of 1%. The inhibition [7] was 6%, the inhibition [8] was -9% and the inhibition [9] was 0%. The inhibition [10] was 2%, the inhibition [11] was 10% and the inhibition [12] was 5%. It also gave an inhibition [13] of -7%, an inhibition (Caspase-3 (Homo sapiens)) of 0% and an IC50 [14] of over 100 µM. For the same molecule, the IC50 (Ephrin type-A receptor 8) was over 100 µM, the IC50 [15] was over 100 µM and the IC50 [16] was over 100 µM. For the same molecule, the IC50 [17] was over 100 µM, the IC50 [18] was over 100 µM and the IC50 [19] was over 100 µM. For the same molecule, the IC50 [20] was over 100 µM and the IC50 [21] was over 100 µM.
